The experiment addresses human Cat S (Homo sapiens, UniProt P25774). Nature of the experiment: Cathepsin enzyme inhibition assay (fluorogenic peptide substrate cleavage). The class given is biochemical. Particulars: human Cat S 1 nM; substrate Z-Val-Val-Arg-AMC 20 μM; pH 6.5; fluorescence over 20 minutes. The gist of the method: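 IC50 values derived from fluorescence increase (ex 360 nm, em 465 nm) monitored for 20 minutes after substrate addition. Enzyme held at 1 nM with 20 μM Z-Val-Val-Arg-AMC, in pH 6.5 potassium phosphate buffer containing DTT, EDTA and Triton X-100.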
human Cat S, sequence (P25774 115-331): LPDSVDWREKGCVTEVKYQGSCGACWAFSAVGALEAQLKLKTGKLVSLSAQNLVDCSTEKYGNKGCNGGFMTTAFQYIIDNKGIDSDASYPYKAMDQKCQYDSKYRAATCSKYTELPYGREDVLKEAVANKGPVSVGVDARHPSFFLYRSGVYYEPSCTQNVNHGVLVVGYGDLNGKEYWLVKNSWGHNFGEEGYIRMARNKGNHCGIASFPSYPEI
Broadly, the IC50 is the concentration at which inhibition is half-maximal. The compound `CO[C@@H]1C[C@H](S(=O)(=O)c2ccc(-c3cc[nH]n3)cc2C(F)(F)F)C[C@H]1C(=O)NC1(C#N)CC1` (racemic) [Example 73, (1R,2R,4R) and (1S,2S,4S)-2-Methoxy-4-[4-(1H-pyrazol-3-yl)-2-trifluoromethyl-benzenesulfonyl]-cyclopentanecarboxylic acid (1-cyano-cyclopropyl)-amide] displayed an IC50 of 1 nM.
In the case of `N#CC1(NC(=O)[C@@H]2C[C@@H](S(=O)(=O)c3ccc(-c4ccnc(Cl)c4)cc3Cl)C[C@H]2C(=O)N2CCC(F)(F)C2)CC1` [Example 199, (1R,2R,4R)-4-[2-Chloro-4-(2-chloro-pyridin-4-yl)-benzenesulfonyl]-2-(3,3-difluoro-pyrrolidine-1-carbonyl)-cyclopentanecarboxylic acid (1-cyano-cyclopropyl)-amide] it was 0.135 nM; in that of `N#CC1(NC(=O)[C@@H]2C[C@@H](S(=O)(=O)c3ccc(C4CC4)cc3C(F)(F)F)C[C@H]2C(=O)N2CC(F)(F)C2)CC1` [Example 125, (1R,2R,4R)-4-(4-Cyclopropyl-2-trifluoromethyl-benzenesulfonyl)-2-(3,3-difluoro-azetidine-1-carbonyl)-cyclopentanecarboxylic acid (1-cyano-cyclopropyl)-amide], 0.3 nM.
In the case of `COC[C@@H]1C[C@@H](S(=O)(=O)c2ccccc2Cl)C[C@H]1C(=O)NC1(C#N)CC1` (single isomer, unassigned) [Example 106] it was 1010 nM; in that of `N#CC1(NC(=O)[C@@H]2C[C@@H](S(=O)(=O)c3ccc(Br)cc3C(F)(F)F)C[C@H]2OC2CCOCC2)CC1` (racemic) [Example 169, (1R,2R,4R) and (1S,2S,4S)-4-(4-Bromo-2-trifluoromethyl-benzenesulfonyl)-2-(tetrahydro-pyran-4-yloxy)-cyclopentanecarboxylic acid (1-cyano-cyclopropyl)-amide], 1.23 nM.
In the case of `COCCOc1ccc(S(=O)(=O)[C@@H]2C[C@@H](C(=O)NC3(C#N)CC3)[C@H](C(=O)N3CC(F)(F)C3)C2)c(Cl)c1` [Example 168, (1R,2R,4R)-4-[2-Chloro-4-(2-methoxy-ethoxy)-benzenesulfonyl]-2-(3,3-difluoro-azetidine-1-carbonyl)-cyclopentanecarboxylic acid (1-cyano-cyclopropyl)-amide] it was 1.27 nM; in that of `N#CC1(NC(=O)[C@@H]2C[C@@H](S(=O)(=O)c3ccccc3C(F)(F)F)C[C@H]2OC2CCC2)CC1` (racemic) [Example 220, (1R,2R,4R) and (1S,2S,4S)-2-Cyclobutoxy-4-(2-trifluoromethyl-benzenesulfonyl)-cyclopentanecarboxylic acid (1-cyano-cyclopropyl)-amide], 3.6 nM; in that of `N#CC1(NC(=O)[C@@H]2C[C@@H](S(=O)(=O)c3ccc(Br)cc3C(F)(F)F)C[C@H]2COC=O)CC1` [Example 152, Formic acid (1R,2R,4S)-4-(4-bromo-2-trifluoromethyl-benzenesulfonyl)-2-(1-cyano-cyclopropylcarbamoyl)-cyclopentylmethyl ester], 4.2 nM.
In turn, `C[C@@H]1CN(C(=O)[C@@H]2C[C@H](S(=O)(=O)c3ccccc3)C[C@H]2C(=O)NC2(C#N)CC2)C[C@H](C)O1` [Example 16, (1R,2R,4R)-4-Benzenesulfonyl-2-((2S,6R)-2,6-dimethyl-morpholine-4-carbonyl)-cyclopentanecarboxylic acid (1-cyano-cyclopropyl)-amide] displayed an IC50 of 0.4 nM.
In the case of `C[C@H](Oc1ccc(S(=O)(=O)[C@H]2CC[C@H](C(=O)NCC#N)C2)c(Cl)c1)C(F)(F)F` (racemic) [Example 80, (1S,3S)-3-[2-Chloro-4-(2,2,2-trifluoro-1-methyl-ethoxy)-benzenesulfonyl]-cyclopentanecarboxylic acid cyanomethyl-amide (epimeric mixture of racemate)] it was 1030 nM; in that of `CO[C@@H]1C[C@H](S(=O)(=O)c2ccc(N3CCN(C(C)C)CC3)cc2C(F)(F)F)C[C@H]1C(=O)NC1(C#N)CC1` (racemic) [Example 177, (1R,2R,4R) and (1S,2S,4S)-4-[4-(4-Isopropyl-piperazin-1-yl)-2-trifluoromethyl-benzenesulfonyl]-2-methoxy-cyclopentanecarboxylic acid (1-cyano-cyclopropyl)-amide], 0.923 nM; in that of `N#CC1(NC(=O)[C@H]2CC[C@H](S(=O)(=O)c3ccc(N4CC5(COC5)C4)cc3Cl)C2)CC1` (racemic) [Example 95, (1S,3S) and (1R,3R)-3-[2-chloro-4-(2-oxa-6-aza-spiro[3.3]hept-6-yl)-benzenesulfonyl]-cyclopentanecarboxylic acid (1-cyano-cyclopropyl)-amide], 140 nM.
Compound `N#CC1(NC(=O)[C@H]2CC[C@@H](S(=O)(=O)c3ccc(OCC(F)(F)F)cc3Cl)C2)CC1` (single isomer, unassigned) [Example 99] gave an IC50 of 500 nM.
The same measure for `Cn1nccc1-c1ccc(S(=O)(=O)[C@@H]2C[C@@H](C(=O)NC3(C#N)CC3)[C@H](C(=O)N3CCC(F)(F)C3)C2)c(Cl)c1` [Example 196, (1R,2R,4R)-4-[2-Chloro-4-(2-methyl-2H-pyrazol-3-yl)-benzenesulfonyl]-2-(3,3-difluoro-pyrrolidine-1-carbonyl)-cyclopentanecarboxylic acid (1-cyano-cyclopropyl)-amide]: 0.215 nM; for `N#CC1(NC(=O)[C@@H]2C[C@@H](S(=O)(=O)c3ccc(-c4cncc(Cl)n4)cc3C(F)(F)F)C[C@H]2C(=O)N2CC(F)(F)C2)CC1` [Example 123, (1R,2R,4R)-4-[4-(6-Chloro-pyrazin-2-yl)-2-trifluoromethyl-benzenesulfonyl]-2-(3,3-difluoro-azetidine-1-carbonyl)-cyclopentanecarboxylic acid (1-cyano-cyclopropyl)-amide]: 0.1 nM; for `CO[C@@H]1C[C@H](S(=O)(=O)c2ccc(-c3cnn(CC4(C)COC4)c3)cc2C(F)(F)F)C[C@H]1C(=O)NC1(C#N)CC1` (racemic) [Example 214, (1R,2R,4R) and (1S,2S,4S)-2-Methoxy-4-{4-[1-(3-methyl-oxetan-3-ylmethyl)-1H-pyrazol-4-yl]-2-trifluoromethyl-benzenesulfonyl}-cyclopentanecarboxylic acid (1-cyano-cyclopropyl)-amide]: 2.85 nM.
The same measure for `N#CC1(NC(=O)[C@@H]2C[C@@H](S(=O)(=O)c3ccc(N4CC5(COC5)C4)cc3C(F)(F)F)C[C@H]2C(=O)N2CC(F)(F)C2)CC1` [Example 133, (1R,2R,4R)-2-(3,3-Difluoro-azetidine-1-carbonyl)-4-[4-(2-oxa-6-aza-spiro[3.3]hept-6-yl)-2-trifluoromethyl-benzenesulfonyl]-cyclopentanecarboxylic acid (1-cyano-cyclopropyl)-amide]: 0.5 nM.
In the case of `N#CC1(NC(=O)[C@@H]2C[C@H](S(=O)(=O)c3ccccn3)C[C@H]2C(=O)N2CCC(F)(F)C2)CC1` [Example 228, (1R,2R,4S)-2-(3,3-Difluoro-pyrrolidine-1-carbonyl)-4-(pyridine-2-sulfonyl)-cyclopentanecarboxylic acid (1-cyano-cyclopropyl)-amide] it was 91 nM.
`N#CCNC(=O)[C@@H]1C[C@@H](S(=O)(=O)c2ccccc2Cl)C[C@H]1C(=O)N1CCOCC1` [Example 3, (1R,2R,4R)-4-(2-Chloro-benzenesulfonyl)-2-(morpholine-4-carbonyl)-cyclopentanecarboxylic acid cyanomethyl-amide] had an IC50 of 0.5 nM. Against the preceding compound, the IC50 is about 180-fold lower.
In the case of `CO[C@@H]1C[C@H](S(=O)(=O)c2ccc(O[C@H](C)C(F)(F)F)cc2Cl)C[C@H]1C(=O)NC1(C#N)CC1` (racemic) [Example 60, (1R,2R,4R) and (1S,2S,4S)-4-[2-Chloro-4-((R/S)-2,2,2-trifluoro-1-methyl-ethoxy)-benzenesulfonyl]-2-methoxy-cyclopentanecarboxylic acid (1-cyano-cyclopropyl)-amide] it was 26.5 nM; in that of `CO[C@@H]1C[C@H](S(=O)(=O)c2ccc(N3CCCCC3)cc2Cl)C[C@H]1C(=O)NC1(C#N)CC1` (racemic) [Example 64, (1R,2R,4R) and (1S,2S,4S)-4-(2-Chloro-4-piperidin-1-yl-benzenesulfonyl)-2-methoxy-cyclopentanecarboxylic acid (1-cyano-cyclopropyl)-amide], 12 nM; in that of `CO[C@@H]1C[C@H](S(=O)(=O)c2ccc(OCC(F)(F)F)cc2Cl)C[C@H]1C(=O)NC1(C#N)CC1` (racemic) [Example 65, (1R,2R,4R) and (1S,2S,4S)-4-[2-Chloro-4-(2,2,2-trifluoro-ethoxy)-benzenesulfonyl]-2-methoxy-cyclopentanecarboxylic acid (1-cyano-cyclopropyl)-amide], 8 nM.
The same measure for `Cc1cc(-c2ccc(S(=O)(=O)[C@H]3C[C@@H](OC(C)C)[C@H](C(=O)NC4(C#N)CC4)C3)c(C(F)(F)F)c2)ccn1` (racemic) [Example 140, (1R,2R,4R) and (1S,2S,4S)-2-Isopropoxy-4-[4-(2-methyl-pyridin-4-yl)-2-trifluoromethyl-benzenesulfonyl]-cyclopentanecarboxylic acid (1-cyano-cyclopropyl)-amide]: 0.2 nM; for `N#CC1(NC(=O)[C@@H]2C[C@@H](S(=O)(=O)c3ccccc3)C[C@H]2C(=O)N2CC3(COC3)C2)CC1` [Example 11, (1R,2R,4R)-4-Benzenesulfonyl-2-(2-oxa-6-aza-spiro[3.3]heptane-6-carbonyl)-cyclopentanecarboxylic acid (1-cyano-cyclopropyl)-amide]: 3 nM.
For the compound `N#CC1(NC(=O)[C@@H]2C[C@@H](S(=O)(=O)c3ccc(Br)cc3C(F)(F)F)C[C@H]2OC2CCC2)CC1` (racemic) [Example 182, (1R,2R,4R) and (1S,2S,4S)-4-(4-Bromo-2-trifluoromethyl-benzenesulfonyl)-2-cyclobutoxy-cyclopentanecarboxylic acid (1-cyano-cyclopropyl)-amide], the midpoint of inhibition, the IC50, lay at 3.8 nM.

The record behind these values is US20100317647A1 (priority 2009, published 2010).
